This is an account of results in US8765744B2, “Azaspirohexanones” (Boehringer Ingelheim International GmbH, priority 2010, dated 2014).

The target of the experiment is 11β-HSD1 (Homo sapiens (Human), UniProt P28845). The conditions noted are these: read-out: Inhibitory activity on 11β-HSD 1, IC50; human liver microsomes; 1 hour at 37° C.; NADPH 200 μM, cortisone 80 nM; HTRF cortisol detection.
Chain of 11β-HSD1 (P28845 whole entry): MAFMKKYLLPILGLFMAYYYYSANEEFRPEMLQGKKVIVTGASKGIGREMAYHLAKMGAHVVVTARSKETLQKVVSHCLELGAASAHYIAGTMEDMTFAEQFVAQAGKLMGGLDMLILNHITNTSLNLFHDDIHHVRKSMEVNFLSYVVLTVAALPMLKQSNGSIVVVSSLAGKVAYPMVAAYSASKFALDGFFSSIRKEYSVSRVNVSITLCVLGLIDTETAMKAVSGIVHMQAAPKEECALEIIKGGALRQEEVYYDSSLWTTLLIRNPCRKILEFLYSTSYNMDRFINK

Experimental: The biological properties (inhibitory activity on 11β-hydroxysteroid dehydrogenase 1) of the new compounds may be investigated as follows:
Briefly, compounds are incubated for 1 hour at 37° C. in Tris buffer (20 mM tris, 5 mM EDTA, pH 6.0) containing NADPH (200 μM) and cortisone (80 nM). Cortisol generated in the reaction is then detected with a competitive immunoassay, involving two HTRF conjugates: cortisol linked to XL665 and anti-cortisol antibody labeled with Europium cryptate. The incubation period for detection reaction is typically 2 hours. […] The ratio of the two emission signals is then calculated (Em665*10000/Em615). […] Each assay also contains a calibration curve with cortisol to transform the fluorescent data into cortisol concentrations. Percent inhibition (% CTL) of each compound is determined relative to the carbenoxolone signal and IC50 curves are generated.

On to `C[C@@H](c1ccc(-c2ccc(C(=O)N(C)C)nc2)cc1)N1CCC2(CCC3(CC2)OCC(C)(C)CO3)OC1=O` [Example 17, 5-{4-[(S)-1-(12,12-Dimethyl-2-oxo-1,10,14-trioxa-3-aza-dispiro[5.2.5.2]hexadec-3-yl)-ethyl]-phenyl}-pyridine-2-carboxylic acid dimethylamide], for which the concentration for half-maximal inhibition (IC50) was > 10 µM.

With `C[C@@H](c1ccc(-c2ccn(C)c(=O)c2)cc1)N1CCC2(CCC3(CC2)OCC(C)(C)CO3)OC1=O` [Example 16, 12,12-Dimethyl-3-{(S)-1-[4-(1-methyl-2-oxo-1,2-dihydro-pyridin-4-yl)-phenyl]-ethyl}-1,10,14-trioxa-3-aza-dispiro[5.2.5.2]hexadecan-2-one], the IC50 was > 10 µM.

The IC50 is the point on the concentration scale where inhibition reaches its midpoint.
